Assay results published in patent US20250025443A1, “COMPOUNDS AND METHODS FOR TREATING CORONA VIRUSES” (CLEAR CREEK BIO, INC., priority 2021, published 2025).

target: SARS-CoV-2 Papain-Like Protease (PLpro) (Severe acute respiratory syndrome coronavirus 2 (2019-nCoV) (SARS-CoV-2), UniProt P0DTD1); assay: biochemical; details: PLpro enzymatic fluorescence assay; class symbols; read-out: PLpro IC50

| SMILES | IC50 |
| --- | --- |
| CNCCOc1ccc(C)c(C(=O)NC2(c3cc(-c4ccn(C)n4)cc4ncccc34)CC2)c1 [Compound 647, 2-Methyl-N-(1-(7-(1-methyl-1H-pyrazol-3-yl)quinolin-5-yl)cyclopropyl)-5-(2-(methylamino)ethoxy)benzamide] | < 100 nM |
| Cc1ccc(OC[C@@H]2CCN2C)cc1C(=O)NC1(c2cc(C3CCCC3)cc3ncccc23)CC1 [Compound 648, (S)-N-(1-(7-Cyclopentylquinolin-5-yl)cyclopropyl)-2-methyl-5-((1-methylazetidin-2-yl)methoxy)benzamide] | < 100 nM |
| Cc1ccc(OC[C@@H]2CCN2)cc1C(=O)NC1(c2cc(-c3ccnn3C)cc3ncccc23)CC1 [Compound 649, (S)-5-(Azetidin-2-ylmethoxy)-2-methyl-N-(1-(7-(1-methyl-1H-pyrazol-5-yl)quinolin-5-yl)cyclopropyl)benzamide] | < 100 nM |
| C=C(c1cc(C2(NC(=O)c3cc(OC[C@@H]4CCN4C)ccc3C)CC2)c2cccnc2c1)C(F)(F)F [Compound 650, (S)-2-Methyl-5-((1-methylazetidin-2-yl)methoxy)-N-(1-(7-(3,3,3-trifluoroprop-1-en-2-yl)quinolin-5-yl)cyclopropyl)benzamide] | < 100 nM |
| Cc1cc(-c2cc(C3(NC(=O)c4cc(OC[C@@H]5CCN5C)ccc4C)CC3)c3cccnc3c2)n[nH]1 [Compound 651, (S)-2-Methyl-N-(1-(7-(5-methyl-1H-pyrazol-3-yl)quinolin-5-yl)cyclopropyl)-5-((1-methylazetidin-2-yl)methoxy)benzamide] | < 100 nM |
| Cc1ccc(OC[C@@H]2CCN2C)cc1C(=O)NC1(c2cc(-c3cn[nH]c3)cc3ncccc23)CC1 [Compound 652, (S)-N-(1-(7-(1H-Pyrazol-4-yl)quinolin-5-yl)cyclopropyl)-2-methyl-5-((1-methylazetidin-2-yl)methoxy)benzamide] | < 100 nM |
| Cc1ccc(-c2cc(C3(NC(=O)c4cc(OC[C@@H]5CCN5C)ccc4C)CC3)c3cccnc3c2)o1 [Compound 654, (S)-2-Methyl-5-((1-methylazetidin-2-yl)methoxy)-N-(1-(7-(5-methylfuran-2-yl)quinolin-5-yl)cyclopropyl)benzamide] | < 100 nM |
| Cc1ccc(OC[C@@H]2CCN2C)cc1C(=O)NC1(c2cc(-c3ccoc3)cc3ncccc23)CC1 [Compound 655, (S)—N-(1-(7-(Furan-3-yl)quinolin-5-yl)cyclopropyl)-2-methyl-5-((1-methylazetidin-2-yl)methoxy)benzamide] | < 100 nM |
| Cc1ccc(OC[C@@H]2CCN2)cc1C(=O)NC1(c2cc(-c3ccn(C(F)F)n3)cc3ncccc23)CC1 [Compound 656, (S)-5-(Azetidin-2-ylmethoxy)-N-(1-(7-(1-(difluoromethyl)-1H-pyrazol-3-yl)quinolin-5-yl)cyclopropyl)-2-methylbenzamide] | < 100 nM |
| CC(=O)c1ccc(-c2cc(C3(NC(=O)c4cc(OC[C@@H]5CCN5C)ccc4C)CC3)c3cccnc3c2)s1 [Compound 657, (S)-N-(1-(7-(5-Acetylthiophen-2-yl)quinolin-5-yl)cyclopropyl)-2-methyl-5-((1-methylazetidin-2-yl)methoxy)benzamide] | < 100 nM |
| Cc1ccc(OC[C@@H]2CCN2)cc1C(=O)NC1(c2cc(-c3ccc(C#N)s3)cc3ncccc23)CC1 [Compound 658, (S)-5-(Azetidin-2-ylmethoxy)-N-(1-(7-(5-cyanothiophen-2-yl)quinolin-5-yl)cyclopropyl)-2-methylbenzamide] | < 100 nM |
| Cc1ccc(OC[C@@H]2CCN2C)cc1C(=O)NC1(c2cc(-c3ccn(-c4ccccc4)n3)cc3ncccc23)CC1 [Compound 659, (S)-2-Methyl-5-((1-methylazetidin-2-yl)methoxy)-N-(1-(7-(1-phenyl-1H-pyrazol-3-yl)quinolin-5-yl)cyclopropyl)benzamide] | < 100 nM |
| C=C(C)c1cc(C2(NC(=O)c3cc(OC[C@H](C)NC)ccc3C)CC2)c2cccnc2c1 [Compound 660, (S)-2-Methyl-5-(2-(methylamino)propoxy)-N-(1-(7-(prop-1-en-2-yl)quinolin-5-yl)cyclopropyl)benzamide] | < 100 nM |
| C=Cc1cc(C2(NC(=O)c3cc(OC[C@H](C)NC)ccc3C)CC2)c2cccnc2c1 [Compound 661, (S)-2-Methyl-5-(2-(methylamino)propoxy)-N-(1-(7-vinylquinolin-5-yl)cyclopropyl)benzamide] | < 100 nM |
| Cc1ccc(OC[C@@H]2CCN2)cc1C(=O)NC1(c2cc(C3=CCCCC3)cc3ncccc23)CC1 [Compound 662, (S)-5-(Azetidin-2-ylmethoxy)-N-(1-(7-(cyclohex-1-en-1-yl)quinolin-5-yl)cyclopropyl)-2-methylbenzamide] | < 100 nM |
| Cc1ccc(OC[C@@H]2CCN2C)cc1C(=O)NC1(c2cc(C3=CCCCC3)cc3ncccc23)CC1 [Compound 663, (S)—N-(1-(7-(Cyclohex-1-en-1-yl)quinolin-5-yl)cyclopropyl)-2-methyl-5-((1-methylazetidin-2-yl)methoxy)benzamide] | < 100 nM |

| SMILES | IC50 |
| --- | --- |
| Cc1ccc(OC[C@@H]2CCN2)cc1C(=O)NC1(c2cc(-c3ccn(-c4ccccc4)n3)cc3ncccc23)CC1 [Compound 664, (S)-5-(Azetidin-2-ylmethoxy)-2-methyl-N-(1-(7-(1-phenyl-1H-pyrazol-3-yl)quinolin-5-yl)cyclopropyl)benzamide] | < 100 nM |
| Cc1ccc(OC[C@@H]2CCN2)cc1C(=O)NC1(c2cc(-c3cnn(C)c3)cc3ncccc23)CC1 [Compound 665, (S)-5-(Azetidin-2-ylmethoxy)-2-methyl-N-(1-(7-(1-methyl-1H-pyrazol-4-yl)quinolin-5-yl)cyclopropyl)benzamide] | < 100 nM |
| Cc1ccc(OC[C@@H]2CCN2)cc1C(=O)NC1(c2cc(-c3ccc(F)c(Cl)c3)cc3ncccc23)CC1 [Compound 666, (S)-5-(Azetidin-2-ylmethoxy)-N-(1-(7-(3-chloro-4-fluorophenyl)quinolin-5-yl)cyclopropyl)-2-methylbenzamide] | < 100 nM |
| Cc1ccc(OC[C@@H]2CCN2)cc1C(=O)NC1(c2cc(/C=C/C3CC3)cc3ncccc23)CC1 [Compound 667, (S,E)-5-(Azetidin-2-ylmethoxy)-N-(1-(7-(2-cyclopropylvinyl)quinolin-5-yl)cyclopropyl)-2-methylbenzamide] | < 100 nM |
| Cc1ccc(OC[C@@H]2CCN2C)cc1C(=O)NC1(c2cc(-c3sccc3Cl)cc3ncccc23)CC1 [Compound 668, (S)-N-(1-(7-(3-Chlorothiophen-2-yl)quinolin-5-yl)cyclopropyl)-2-methyl-5-((1-methylazetidin-2-yl)methoxy)benzamide] | < 100 nM |
| Cc1ccc(OC[C@@H]2CCN2C)cc1C(=O)NC1(c2cc(-c3ccc(CN4CCCC4)s3)cc3ncccc23)CC1 [Compound 669, (S)-2-Methyl-5-((1-methylazetidin-2-yl)methoxy)-N-(1-(7-(5-(pyrrolidin-1-ylmethyl)thiophen-2-yl)quinolin-5-yl)cyclopropyl)benzamide] | < 100 nM |
| Cc1ccc(OC[C@@H]2CCN2C)cc1C(=O)NC1(c2cc(-c3cnn(C)c3)cc3ncccc23)CC1 [Compound 670, (S)-2-Methyl-N-(1-(7-(1-methyl-1H-pyrazol-4-yl)quinolin-5-yl)cyclopropyl)-5-((1-methylazetidin-2-yl)methoxy)benzamide] | < 100 nM |
| Cc1cc(-c2cc(C3(NC(=O)c4cc(OC[C@@H]5CCN5C)ccc4C)CC3)c3cccnc3c2)c(C)o1 [Compound 671, (S)—N-(1-(7-(2,5-Dimethylfuran-3-yl)quinolin-5-yl)cyclopropyl)-2-methyl-5-((1-methylazetidin-2-yl)methoxy)benzamide] | < 100 nM |
| Cc1ccc(OC[C@@H]2CCN2C)cc1C(=O)NC1(c2cc(-c3ccc(=O)[nH]c3)cc3ncccc23)CC1 [Compound 672, (S)-2-Methyl-5-((1-methylazetidin-2-yl)methoxy)-N-(1-(7-(6-oxo-1,6-dihydropyridin-3-yl)quinolin-5-yl)cyclopropyl)benzamide] | < 100 nM |
| Cc1nnc(-c2cc(C3(NC(=O)c4cc(OC[C@@H]5CCN5)ccc4C)CC3)c3cccnc3c2)s1 [Compound 673, (S)-5-(Azetidin-2-ylmethoxy)-2-methyl-N-(1-(7-(5-methyl-1,3,4-thiadiazol-2-yl)quinolin-5-yl)cyclopropyl)benzamide] | < 100 nM |
| Cc1ccc(OC[C@@H]2CCN2)cc1C(=O)NC1(c2cc(-c3ccc(=O)[nH]c3)cc3ncccc23)CC1 [Compound 674, (S)-5-(Azetidin-2-ylmethoxy)-2-methyl-N-(1-(7-(6-oxo-1,6-dihydropyridin-3-yl)quinolin-5-yl)cyclopropyl)benzamide] | < 100 nM |
| Cc1ccc(OC[C@@H]2CCN2)cc1C(=O)NC1(c2cc(-c3ccc(F)cc3)cc3ncccc23)CC1 [Compound 675, (S)-5-(Azetidin-2-ylmethoxy)-N-(1-(7-(4-fluorophenyl)quinolin-5-yl)cyclopropyl)-2-methylbenzamide] | < 100 nM |
| Cc1ccc(OC[C@@H]2CCN2C)cc1C(=O)NC1(c2cc(C(C)O)cc3ncccc23)CC1 (stereo partly drawn) [Compound 676, N-(1-(7-(1-Hydroxyethyl)quinolin-5-yl)cyclopropyl)-2-methyl-5-(((S)-1-methylazetidin-2-yl)methoxy)benzamide] | < 100 nM |
| CCc1cc(C2(NC(=O)c3cc(OC[C@@H]4CCN4)ccc3C)CC2)c2cccnc2c1 [Compound 677, (S)-5-(Azetidin-2-ylmethoxy)-N-(1-(7-ethylquinolin-5-yl)cyclopropyl)-2-methylbenzamide] | < 100 nM |
| Cc1ccc(OC[C@@H]2CCN2C)cc1C(=O)NC1(c2cc(-c3ccc(F)cc3)cc3ncccc23)CC1 [Compound 678, (S)—N-(1-(7-(4-Fluorophenyl)quinolin-5-yl)cyclopropyl)-2-methyl-5-((1-methylazetidin-2-yl)methoxy)benzamide] | < 100 nM |
| Cc1nnc(-c2cc(C3(NC(=O)c4cc(OC[C@@H]5CCN5)ccc4C)CC3)c3cccnc3c2)o1 [Compound 680, (S)-5-(Azetidin-2-ylmethoxy)-2-methyl-N-(1-(7-(5-methyl-1,3,4-oxadiazol-2-yl)quinolin-5-yl)cyclopropyl)benzamide] | < 100 nM |
